Data on 21 compounds can be found in patent publication US20110312996A1, “NOVEL INHIBITORS OF HEPATITIS C VIRUS REPLICATION” (priority 2010, published 2011).

pEC50: −log10 of the molar value.

One test has as its system Huh7 cells containing HCV replicons with an integrated luciferase reporter gene. The test is described as follows: HCV Replicon Assay (luciferase reporter). It is filed as cell-based. Particulars: Hepatitis C virus, Huh-7, 48 h, read-out: EC50 nM. How it is done:
Huh7 cells containing HCV replicons with an integrated luciferase reporter gene are maintained at 37° C. in 5% CO2 in Dulbecco's modified Eagle's medium (DMEM; Mediatech, Herndon, Va.) containing 10% heat-inactivated fetal bovine serum (FBS; Mediatech, Herndon, Va.), 2 mM L-glutamine (Cambrex Bioscience, Walkersville, Md.), 1% non essential amino acids (Lonza, Walkersville, Md.), 50 IU/mL penicillin (Mediatech, Herndon, Va.), […] streptomycin (Mediatech, Herndon, Va.) and 0.5 mg/mL G418 (Promega, Madison, Wis.). Cells are sub-divided 1:3 or 4 every 2-3 days.
24 h prior to the assay, Huh7 cells containing sub-genomic HCV replicons are collected, counted, and plated in Nunclon 96-well tissue culture plates (ThermoFisher, Rochester, N.Y.) at 5000 cells/well in […] standard maintenance medium (above) and incubated in the conditions above. To initiate the assay, culture medium is removed, and replaced with […] maintenance media lacking G418. Test compounds are serially diluted three-fold in dimethyl sulfoxide (DMSO) in two duplicate rows for each EC50 determination. These compound solutions are diluted ten-fold in DMEM lacking serum and G418. […] of these compound solutions in media are added to duplicate tissue culture plates. The final volume is 100 μL with a DMSO concentration of 1%. Compound concentrations are adjusted to appropriately define a dose response curve. Typical dilution series range from […] to 1.69 nM final concentrations to 1 nM to 16.9 fM final. Plates are incubated at 37° C. for approximately 48 hr.
Following incubation, media is removed from one of the two duplicate plates and replicon-reporter luciferase activity is measured using a Bright-Glo luciferase assay kit (Promega, Madison, Wis.) according to manufacturer's instructions. Semi-log plots of luciferase activity versus the logarithm of compound concentration are fit to a 4-parameter logistic function using XLfit software (IDBS Inc., Guildford, UK) to determine EC50.
(In general: A replicon is a self-replicating genome or part of one, used to study replication in cells.)
In general, EC50 refers to the concentration at which the effect is half-maximal. In the case of `COC(=O)N[C@H](C(=O)N1CCC[C@H]1C(=O)Nc1ccc2cc(-c3ccccc3)ccc2c1)C(C)C` [Compound 502], the EC50 is greater than 100 nM.

Staying with this test, now noted: Hepatitis C virus, Huh-7; Huh7 sub-genomic HCV replicon, luciferase activity, approximately 48 hr incubation; read-out: EC50.
One may read the pEC50 as the negative decadic logarithm of the EC50, by convention in mol/L. Consider `COC(=O)N[C@H](C(=O)N1CCC[C@H]1c1nc(-c2ccc(-c3ccc(-c4c[nH]c([C@@H]5CCCN5C(=O)[C@@H](NC(=O)OC)c5ccc(F)cc5)n4)cc3)cc2)c[nH]1)c1ccc(F)cc1` [Compound 421], for which the pEC50 was greater than 8.00.

As for `COC(=O)N[C@H](C(=O)N1CCC[C@H]1c1nc2ccc(-c3ccc(-c4ccc5nc([C@@H]6CCCN6C(=O)[C@@H](NC(=O)OC)c6ccc(F)cc6)[nH]c5c4)cc3)cc2[nH]1)c1ccc(F)cc1` [Compound 422], the pEC50 was greater than 8.00.

Take `COC(=O)N[C@H](C(=O)N1CCC[C@H]1c1nc(-c2ccc(-c3ccc(-c4c[nH]c([C@@H]5CCCN5C(=O)[C@@H](NC(=O)OC)C(C(F)(F)F)C(F)(F)F)n4)cc3)cc2)c[nH]1)C(C(F)(F)F)C(F)(F)F` [Compound 423]: the pEC50 was greater than 8.00.

For the compound `COC(=O)N[C@H](C(=O)N1CCC[C@H]1c1nc(-c2ccc(-c3ccc(-c4c[nH]c([C@@H]5CCCN5C(=O)[C@@H](NC(=O)OC)c5cccc(F)c5)n4)cc3)cc2)c[nH]1)c1cccc(F)c1` [Compound 424], the pEC50 is greater than 8.00.

Turning to `COC(=O)N[C@H](C(=O)N1CCC[C@H]1C(=O)OCC(=O)c1ccc(N2CCN(Cc3ccccc3)CC2)cc1)C(C)C` [Compound 501], the pEC50 was less than 7.00.

On to `COC(=O)N[C@H](C(=O)N1CCC[C@H]1c1nc(-c2ccccc2)c[nH]1)C(C)C` [Compound 504], for which the pEC50 is less than 7.00.

With `COc1ccc2cc(-c3c[nH]c([C@@H]4CCCN4C(=O)OC(C)(C)C)n3)ccc2c1` [Compound 505], the pEC50 is less than 7.00.

`COC(=O)N[C@H](C(=O)N1CCC[C@H]1C(=O)NCc1ccc(-c2ccc(-c3c[nH]c([C@@H]4CCCN4C(=O)[C@@H](NC(=O)OC)C(C)C)n3)cc2)cc1)C(C)C` [Compound 506]: the negative-log EC50 (pEC50) is greater than 8.00.

On to `COC(=O)N[C@H](C(=O)N1CCC[C@H]1c1nc(-c2ccc(-c3ccc(-c4c[nH]c([C@@H]5CCCN5C(=O)[C@@H](NC(=O)OC)C(C)C)n4)c4c3CCC4)c3c2CCC3)c[nH]1)C(C)C` [Compound 601], for which the pEC50 is greater than 8.00.

Consider `COC(=O)N[C@H](C(=O)N1CCC[C@H]1c1nc(-c2ccc(-c3ccc(-c4c[nH]c([C@@H]5CCCN5C(=O)[C@@H](NC(=O)OC)C(C)C)n4)c4ocnc34)c3ncoc23)c[nH]1)C(C)C` [Compound 602], for which the negative-log EC50 (pEC50) was greater than 8.00.

Take `COC(=O)NC(C(=O)N1CCC[C@H]1c1nc(-c2ccc(-c3ccc(-c4c[nH]c(N5CCCN5C(=O)[C@@H](NC(=O)OC)C(C)C)n4)c4scnc34)c3ncsc23)c[nH]1)C(C)C` (stereo partly drawn) [Compound 603]: the pEC50 was greater than 8.00.

For `COC(=O)N[C@H](C(=O)N1CCC[C@@]1(C)c1nc(-c2ccc(-c3ccc(-c4c[nH]c([C@]5(C)CCCN5C(=O)[C@@H](NC(=O)OC)C(C)C)n4)c4c3CCC4)c3c2CCC3)c[nH]1)C(C)C` [Compound 604], the pEC50 was greater than 8.00.

With `COC(=O)N[C@H](C(=O)N1CCC[C@H]1c1nc(-c2ccc(-c3ccc(-c4c[nH]c([C@]5(C)CCCN5C(=O)[C@@H](NC(=O)OC)C(C)C)n4)c4c3CCC4)c3c2CCC3)c[nH]1)C(C)C` [Compound 605], the pEC50 was greater than 8.00.

In the case of `COC(=O)N[C@H]1CC[C@H]2CC[C@@H](c3nc(-c4ccc(-c5ccc(-c6c[nH]c([C@@H]7CC[C@@H]8CC[C@H](NC(=O)OC)C(=O)N87)n6)cc5)cc4)c[nH]3)N2C1=O` [Compound 801], the pEC50 is less than 7.00.

As to `COC(=O)N[C@H]1CC[C@H]2CC[C@@H](C(=O)Nc3ccc(/C=C/c4ccc(NC(=O)[C@@H]5CC[C@@H]6CC[C@H](NC(=O)OC)C(=O)N65)cc4)cc3)N2C1=O` [Compound 802], the pEC50 was less than 7.00.

Turning to `COC(=O)N[C@H]1CC[C@H]2CC[C@@H](c3nc(-c4ccc(-c5ccc(-c6c[nH]c([C@@H]7CCCN7C(=O)[C@@H](NC(=O)OC)C(C)C)n6)cc5)cc4)c[nH]3)N2C1=O` [Compound 803], the pEC50 was greater than 8.00.

As for `COC(=O)N[C@H]1CC[C@@H]2CC[C@@H](c3nc(-c4ccc(-c5ccc(-c6c[nH]c([C@@H]7CCCN7C(=O)[C@@H](NC(=O)OC)C(C)C)n6)cc5)cc4)c[nH]3)N2C1=O` [Compound 804], the pEC50 is greater than 8.00.

Consider `COC(=O)N[C@H]1CC[C@H]2CC[C@@H](c3nc(-c4ccc(-c5ccc(-c6c[nH]c([C@]7(C)CCCN7C(=O)[C@@H](NC(=O)OC)C(C)C)n6)cc5)cc4)c[nH]3)N2C1=O` [Compound 805], for which the pEC50 was 7.00 to 8.00.

For `COC(=O)N[C@H]1CCC[C@@H]2CC[C@@H](c3nc(-c4ccc(-c5ccc(-c6c[nH]c([C@@H]7CCCC7C(=O)[C@@H](NC(=O)OC)C(C)C)n6)cc5)cc4)c[nH]3)N2C1=O` (stereo partly drawn) [Compound 806], the pEC50 is greater than 8.00.

Consider `COC(=O)N[C@H]1CCC[C@H]2CC[C@@H](c3nc(-c4ccc(-c5ccc(-c6c[nH]c([C@@H]7CCCN7C(=O)[C@@H](NC(=O)OC)C(C)C)n6)cc5)cc4)c[nH]3)N2C1=O` [Compound 807], for which the pEC50 is greater than 8.00.
